# Source: patent US20230121313A1 (priority 2019, published 2023)
# System: subjects with MDD at imminent risk for suicide
# Conditions: human, in vivo, other: intranasal, 84 mg
# Procedure: Transient blood pressure increases peaked for the esketamine group at approximately 40 minutes post dose with the maximum mean increases (across all dosing days) in systolic BP being 8.7 in the placebo group and 16.7 in the esketamine 84 mg group. The maximum mean increases (across all dosing days) in diastolic BP were 7.6 in the placebo group and 11.9 in the esketamine 84 mg group. […] See, FIGS. 46 and 47.
compound,measurement,setting,value
"CN[C@]1(c2ccccc2Cl)CCCCC1=O [esketamine, (S)-2-(2-chlorophenyl)-2-(methylamino)cyclohexanone]",Blood pressure returning to normal range by (post dose),,≤ 2 h
same,Maximum mean increase in diastolic BP (across all dosing days),40 minutes,11.9
same,Maximum mean increase in systolic BP (across all dosing days),40 minutes,16.7
